Here are results for three compounds from patent EP0231444A2, “Optically active isomers and racemate of 1-(benztriazol-4-yloxy)-3-[2-(2-methoxyphenoxy)-ethylamino]-2-propanol, process for their preparation as well as their use as medicaments” (BOEHRINGER MANNHEIM GMBH, priority 1985, dated 1987).

Where a name gives a salt, the structure may show the parent alone.

The test system of test [1] is Blutgefäße. To be noted: as described in EP-B 14 951; cited from earlier work.
Test [2] concerns the target β₂-Rezeptoren (Rezeptoren der glatten Muskulatur) (Homo sapiens, UniProt P07550). As to the kind of experiment: beta-2 adrenergic receptor blockade (no method described). Conditions: qualitative statement.
The target of test [3] is β₁-Rezeptoren (Rezeptoren des Herzmuskels) (Homo sapiens, UniProt P08588). In words: beta-1 adrenergic receptor blockade (no method described). To be noted: qualitative statement.
The next test relates to Augeninnendruck. In words: lowering of intraocular pressure on local application (no method described). Type of test: in vivo. To be noted: lokale Applikation, qualitative statement.
Test [4] has as its system Blutgefäße. In words: vasodilating effect (no method described). Conditions: qualitative statement, enantiomers.
Where [5] appears, read: listed as erfindungsgemäße Substanz.

Chain of β₁-Rezeptoren (Rezeptoren des Herzmuskels) (P08588 whole entry): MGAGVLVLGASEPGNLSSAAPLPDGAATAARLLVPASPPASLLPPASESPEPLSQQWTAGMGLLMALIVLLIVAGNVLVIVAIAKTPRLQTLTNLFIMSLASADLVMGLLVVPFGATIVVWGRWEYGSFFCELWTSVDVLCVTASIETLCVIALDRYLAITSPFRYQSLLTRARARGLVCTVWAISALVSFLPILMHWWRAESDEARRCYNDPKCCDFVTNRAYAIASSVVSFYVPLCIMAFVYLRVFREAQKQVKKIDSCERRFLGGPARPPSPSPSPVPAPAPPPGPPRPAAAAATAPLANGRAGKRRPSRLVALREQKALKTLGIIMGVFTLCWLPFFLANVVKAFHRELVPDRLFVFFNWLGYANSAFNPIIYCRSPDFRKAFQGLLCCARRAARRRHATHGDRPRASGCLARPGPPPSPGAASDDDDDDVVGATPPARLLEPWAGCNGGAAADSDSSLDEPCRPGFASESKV
Chain of β₂-Rezeptoren (Rezeptoren der glatten Muskulatur) (P07550 whole entry): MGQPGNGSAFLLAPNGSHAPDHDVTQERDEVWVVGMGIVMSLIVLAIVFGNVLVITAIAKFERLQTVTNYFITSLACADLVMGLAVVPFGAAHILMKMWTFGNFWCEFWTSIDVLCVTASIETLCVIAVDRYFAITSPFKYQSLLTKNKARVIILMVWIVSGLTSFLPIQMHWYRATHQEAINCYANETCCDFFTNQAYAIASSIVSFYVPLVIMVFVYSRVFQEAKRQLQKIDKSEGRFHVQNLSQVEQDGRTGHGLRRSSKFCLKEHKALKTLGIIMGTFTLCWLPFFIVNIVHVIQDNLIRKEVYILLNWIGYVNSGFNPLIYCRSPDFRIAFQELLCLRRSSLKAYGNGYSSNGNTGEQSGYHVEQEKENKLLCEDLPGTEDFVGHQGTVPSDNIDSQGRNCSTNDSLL

In the case of `COc1ccccc1OCCNCC(O)COc1cccc2[nH]nnc12` (racemic) [racemische Substanz, 1-(Benztriazol-4-yloxy)-3-(2-(2-methoxyphenoxy)-ethylamino)-2-propanol], in the test on Blutgefäße [1], the “vasodilatierende Eigenschaften” value was “vasodilatierende Eigenschaften”. For the same compound, the “β₂-blockierende Wirkung” value in test [2] (listed as Beispiel 8 b) is given as “nicht oder nur wenig beeinflußt”; in test [2] (setting [5]), “nur sehr geringe β₂-blockierende Wirkung”. Further, in test [3] (β₁ versus β₂), the “Selektivität β₁ gegenüber β₂ (cardioselektiv)” value is reported as “cardioselektiv”. Besides, the “β₁-blockierende Wirkung” value in test [3] (listed as Beispiel 8 b) is listed as “vorwiegend eine β₁-blockierende Wirkung”; in test [3] (setting [5]) it was “β₁-blockierende Wirkung besitzt”. The “augeninnendrucksenkende Wirkung” value is “in extrem geringer Konzentration” in the test with Augeninnendruck and “im gleichen Maße vorhanden ist wie bei üblichen bekannten β-blockierenden Verbindungen” in the test with Augeninnendruck (setting [5]).

`COc1ccccc1OCCNC[C@@H](O)COc1cccc2[nH]nnc12` (single isomer, unassigned) [R-Enantiomere]: the “β₂-blockierende Wirkung” value in test [2] is “keine β₂-blockierende”. Also, in test [3], the “β₁-blockierende Wirkung” value is recorded as “keine β₁-blockierende”. For the same compound, the “augeninnendrucksenkende Wirkung” value with Augeninnendruck is “augendrucksenkenden Wirkung”.

On to `COc1ccccc1OCCNC[C@H](O)COc1cccc2[nH]nnc12` (single isomer, unassigned) [S-Enantiomere, S-(-)-1-(Benztriazol-4-yloxy)-3-(2-(2-methoxyphenoxy)-ethyl-amino)-2-propanol-hydrochlorid], for which the “vasodilatierende / blutgefäßerweiternde Wirkung” value with Blutgefäße [4] was “blutgefäßerweiternde”. Further, in test [3], the “β₁-blockierende Wirkung” value was “praktisch die gesamte”.
